Legend:
Type in all cases: cell-based
AAK1 = target: T1, AAK1 (Homo sapiens, UniProt Q2M2I8); assay: CETSA-MS, MDA-MB-231 intact cells; conditions: 2 μM and 20 μM
T1 construct: endogenous in cells; host or cells: MDA-MB-231
How it was run: (§1)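 Intact MDA-MB-231 cells were incubated with compound, pelleted, washed and heated across a thermal gradient. After freeze-lysis, sonication and centrifugation, soluble protein was acetone-precipitated, digested, labeled and quantified by mass spectrometry proteomics to track thermal stabilization.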

ANP32B = target: T2, ANP32B (Homo sapiens, UniProt Q92688); assay: CETSA-MS, MDA-MB-231 intact cells; conditions: 2 μM and 20 μM
T2 construct: endogenous in cells; host or cells: MDA-MB-231
How it was run: as §1

APLP2 = target: T3, APLP2 (Homo sapiens, UniProt Q06481); assay: CETSA-MS, MDA-MB-231 intact cells; conditions: 2 μM and 20 μM
T3 construct: endogenous in cells; host or cells: MDA-MB-231
How it was run: as §1

CAVIN3 = target: T4, CAVIN3 (Homo sapiens, UniProt Q969G5); assay: CETSA-MS, MDA-MB-231 intact cells; conditions: 2 μM and 20 μM
T4 construct: endogenous in cells; host or cells: MDA-MB-231
How it was run: as §1

CBX5 = target: T5, CBX5 (Homo sapiens, UniProt P45973); assay: CETSA-MS, MDA-MB-231 intact cells; conditions: 2 μM and 20 μM
T5 construct: endogenous in cells; host or cells: MDA-MB-231
How it was run: as §1

CDK12 = target: T6, CDK12 (Homo sapiens, UniProt Q9NYV4); assay: CETSA-MS, MDA-MB-231 intact cells; conditions: 2 μM and 20 μM
T6 construct: endogenous in cells; host or cells: MDA-MB-231
How it was run: as §1

CERS2 = target: T7, CERS2 (Homo sapiens, UniProt Q96G23); assay: CETSA-MS, MDA-MB-231 intact cells; conditions: 2 μM and 20 μM
T7 construct: endogenous in cells; host or cells: MDA-MB-231
How it was run: as §1

CPD = target: T8, CPD (Homo sapiens, UniProt O75976); assay: CETSA-MS, MDA-MB-231 intact cells; conditions: 2 μM and 20 μM
T8 construct: 148 targets unique to Compound 1 in MDA-MB-231 intact cells; endogenous in cells; host or cells: MDA-MB-231
How it was run: as §1

DDX21 = target: T9, DDX21 (Homo sapiens, UniProt Q9NR30); assay: CETSA-MS, MDA-MB-231 intact cells; conditions: 2 μM and 20 μM
T9 construct: 148 targets unique to Compound 1 in MDA-MB-231 intact cells; endogenous in cells; host or cells: MDA-MB-231
How it was run: as §1

DHX9 = target: T10, DHX9 (Homo sapiens, UniProt Q08211); assay: CETSA-MS, MDA-MB-231 intact cells; conditions: 2 μM and 20 μM
T10 construct: 148 targets unique to Compound 1 in MDA-MB-231 intact cells; endogenous in cells; host or cells: MDA-MB-231
How it was run: as §1

FASTKD5 = target: T11, FASTKD5 (Homo sapiens, UniProt Q7L8L6); assay: CETSA-MS, MDA-MB-231 intact cells; conditions: 2 μM and 20 μM
T11 construct: 148 targets unique to Compound 1 in MDA-MB-231 intact cells; endogenous in cells; host or cells: MDA-MB-231
How it was run: as §1

FBRS = assay: CETSA-MS, MDA-MB-231 intact cells; conditions: 2 μM and 20 μM
How it was run: as §1

HNRNPA0 = target: T12, HNRNPA0 (Homo sapiens, UniProt Q13151); assay: CETSA-MS, MDA-MB-231 intact cells; conditions: 2 μM and 20 μM
T12 construct: 148 targets unique to Compound 1 in MDA-MB-231 intact cells; endogenous in cells; host or cells: MDA-MB-231
How it was run: as §1

HNRNPC = target: T13, HNRNPC (Homo sapiens, UniProt P07910); assay: CETSA-MS, MDA-MB-231 intact cells; conditions: 2 μM and 20 μM
T13 construct: 148 targets unique to Compound 1 in MDA-MB-231 intact cells; endogenous in cells; host or cells: MDA-MB-231
How it was run: as §1

HSPG2 = target: T14, HSPG2 (Homo sapiens, UniProt P98160); assay: CETSA-MS, MDA-MB-231 intact cells; conditions: 2 μM and 20 μM
T14 construct: endogenous in cells; host or cells: MDA-MB-231
How it was run: as §1

ILF3 = target: T15, ILF3 (Homo sapiens, UniProt Q12906); assay: CETSA-MS, MDA-MB-231 intact cells; conditions: 2 μM and 20 μM
T15 construct: endogenous in cells; host or cells: MDA-MB-231
How it was run: as §1

MRC2 = target: T16, MRC2 (Homo sapiens, UniProt Q9UBG0); assay: CETSA-MS, MDA-MB-231 intact cells; conditions: 2 μM and 20 μM
T16 construct: endogenous in cells; host or cells: MDA-MB-231
How it was run: as §1

MTG1 = target: T17, MTG1 (Homo sapiens, UniProt Q9BT17); assay: CETSA-MS, MDA-MB-231 intact cells; conditions: 2 μM and 20 μM
T17 construct: endogenous in cells; host or cells: MDA-MB-231
How it was run: as §1

PIK3C3 = target: T18, PIK3C3 (Homo sapiens, UniProt Q8NEB9); assay: CETSA-MS, MDA-MB-231 intact cells; conditions: 2 μM and 20 μM
T18 construct: endogenous in cells; host or cells: MDA-MB-231
How it was run: as §1

PIP4K2A = target: T19, PIP4K2A (Homo sapiens, UniProt P48426); assay: CETSA-MS, MDA-MB-231 intact cells; conditions: 2 μM and 20 μM
T19 construct: endogenous in cells; host or cells: MDA-MB-231
How it was run: as §1

RAE1 = target: T20, RAE1 (Homo sapiens, UniProt P78406); assay: CETSA-MS, MDA-MB-231 intact cells; conditions: 2 μM and 20 μM
T20 construct: endogenous in cells; host or cells: MDA-MB-231
How it was run: as §1

YES1 = target: T21, YES1 (Homo sapiens, UniProt P07947); assay: CETSA-MS, MDA-MB-231 intact cells; conditions: 2 μM and 20 μM
T21 construct: endogenous in cells; host or cells: MDA-MB-231
How it was run: as §1

Hs578t cells = assay: Cancer cell growth, 48 hours; conditions: 5 μM or 10 μM, compared to Comparator 1 (FIG. 1)
Protocol: At the end of 48 hours, growth of cells was measured using standard techniques.

HCC-1937 = assay: Cell viability after 72 hours treatment; conditions: HCC-1937 (TNBC)
Protocol: (§2) The effects on the different treatment conditions on BUB 1 levels and PARP cleavage were also assessed. For both MNA-MB-231 cells, Compound 1 alone or with HCQ or SBI decreased BUB1 levels and cleaved PARP with […] decreases in cell viability observed for all treatments except Compound 1+SBI in MMA-MB-231 cells. The effects of Compound 1 with or without autophagy inhibitors was less pronounced in HCC-1937 cells.

MDA-MB-231 = assay: Cell viability after 72 hours treatment; conditions: MDA-MB-231 (TNBC)
Protocol: as §2

MDA-MB-468 = assay: Cell viability after 72 hours treatment; conditions: MDA-MB-468 (TNBC)
Protocol: as §2

Caspase 3/7 = Caspase 3/7 Glo assay, MDA-MB-231 cells, 24 hours
Protocol: To determine how Compound 1 induces cell death, Caspase 3/7 activity was measured using the Caspase 3/7 Glo assay.
The effect of zVAD-FMK treatment on Caspase 3/7 activity was assessed.

CDK4/cyclin D1 [1] = target: T22, CDK4/cyclin D1 (Homo sapiens, UniProt P11802); assay: CDK4/cyclin D1 NanoBret IC50
CDK4/cyclin D1 [2] = target: T22, CDK4/cyclin D1; assay: CDK4/cyclin D1 CETSA; design: endogenous in cells; host or cells: MDA-MB-231 (lysates and intact cells)
Protocol: Following treatment, cell lysates were thermally treated in a thermal gradient profile across a temperature range. Following the thermal shift, cell lysates were spun by centrifuge to pellet aggregate protein and the supernatant withdrawn. The supernatant was then denatured in buffer and heated to denature, reduce, and alkylate the supernatant proteins. Following heating and cooling to room temperature, cold acetone was added to the supernatant samples and proteins precipitated.
TNBC MDA-MB-231 cells were grown at 37° C. in 5% CO2 and suspended in warm media and split into 4 equal volumes. […] Cells were incubated and then pelleted. Following pelleting, the cells were washed, resuspended, and heated in a thermal gradient. Following heating, the samples were flash frozen and lysed in lysis buffer, agitated by vortex, and sonicated prior to centrifugation. The supernatant was collected and denaturation buffer added. Cold acetone was then added to the cell samples, and protein collected by centrifugation. […]
The intact cell protein samples and lysate protein samples were then digested and labeled for mass spectrometry analysis according to the manufacturer's recommended protocols. Digested and labeled protein samples were analyzed by mass spectrometry proteomic analysis and the resulting protein targets were analyzed and plotted.

T17 sequence (Q9BT17 whole entry): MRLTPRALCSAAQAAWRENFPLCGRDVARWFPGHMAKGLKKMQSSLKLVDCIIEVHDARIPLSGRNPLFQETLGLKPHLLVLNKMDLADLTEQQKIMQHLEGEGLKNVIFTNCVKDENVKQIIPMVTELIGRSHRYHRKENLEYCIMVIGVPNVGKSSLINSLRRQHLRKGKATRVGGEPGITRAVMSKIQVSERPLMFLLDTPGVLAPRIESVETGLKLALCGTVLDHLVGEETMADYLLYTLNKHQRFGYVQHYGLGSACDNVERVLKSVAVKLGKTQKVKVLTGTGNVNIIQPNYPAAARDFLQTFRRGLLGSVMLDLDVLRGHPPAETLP
T10 sequence (Q08211 whole entry): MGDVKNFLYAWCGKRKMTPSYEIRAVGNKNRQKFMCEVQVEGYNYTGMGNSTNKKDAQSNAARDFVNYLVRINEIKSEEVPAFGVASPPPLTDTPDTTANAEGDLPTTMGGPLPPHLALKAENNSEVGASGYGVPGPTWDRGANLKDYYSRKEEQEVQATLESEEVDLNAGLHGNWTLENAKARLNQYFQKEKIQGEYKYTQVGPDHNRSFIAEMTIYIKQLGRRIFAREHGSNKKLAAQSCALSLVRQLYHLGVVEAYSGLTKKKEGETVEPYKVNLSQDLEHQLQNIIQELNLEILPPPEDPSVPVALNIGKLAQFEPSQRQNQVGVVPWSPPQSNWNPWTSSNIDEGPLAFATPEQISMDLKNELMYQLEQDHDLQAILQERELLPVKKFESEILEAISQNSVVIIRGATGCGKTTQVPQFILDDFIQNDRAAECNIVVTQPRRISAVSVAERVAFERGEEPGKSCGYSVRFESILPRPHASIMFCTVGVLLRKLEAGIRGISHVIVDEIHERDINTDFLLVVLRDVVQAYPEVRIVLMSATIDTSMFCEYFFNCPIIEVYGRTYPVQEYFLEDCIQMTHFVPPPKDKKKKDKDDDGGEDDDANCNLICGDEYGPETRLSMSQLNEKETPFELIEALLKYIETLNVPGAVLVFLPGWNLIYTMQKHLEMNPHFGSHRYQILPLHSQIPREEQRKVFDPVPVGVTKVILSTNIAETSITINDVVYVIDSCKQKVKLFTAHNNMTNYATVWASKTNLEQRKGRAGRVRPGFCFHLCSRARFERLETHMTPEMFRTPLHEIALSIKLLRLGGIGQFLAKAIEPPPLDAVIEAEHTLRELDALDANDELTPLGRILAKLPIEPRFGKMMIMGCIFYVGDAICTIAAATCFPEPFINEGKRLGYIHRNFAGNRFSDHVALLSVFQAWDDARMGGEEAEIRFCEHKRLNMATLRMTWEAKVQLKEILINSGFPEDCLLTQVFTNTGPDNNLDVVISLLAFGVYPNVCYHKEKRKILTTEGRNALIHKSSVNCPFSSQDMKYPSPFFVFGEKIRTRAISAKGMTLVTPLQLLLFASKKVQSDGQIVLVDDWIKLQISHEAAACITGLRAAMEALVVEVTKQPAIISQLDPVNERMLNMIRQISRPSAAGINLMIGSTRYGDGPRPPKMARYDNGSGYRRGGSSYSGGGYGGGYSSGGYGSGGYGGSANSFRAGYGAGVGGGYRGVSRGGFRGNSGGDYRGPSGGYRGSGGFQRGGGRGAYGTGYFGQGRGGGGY
T11 sequence (Q7L8L6 28-764): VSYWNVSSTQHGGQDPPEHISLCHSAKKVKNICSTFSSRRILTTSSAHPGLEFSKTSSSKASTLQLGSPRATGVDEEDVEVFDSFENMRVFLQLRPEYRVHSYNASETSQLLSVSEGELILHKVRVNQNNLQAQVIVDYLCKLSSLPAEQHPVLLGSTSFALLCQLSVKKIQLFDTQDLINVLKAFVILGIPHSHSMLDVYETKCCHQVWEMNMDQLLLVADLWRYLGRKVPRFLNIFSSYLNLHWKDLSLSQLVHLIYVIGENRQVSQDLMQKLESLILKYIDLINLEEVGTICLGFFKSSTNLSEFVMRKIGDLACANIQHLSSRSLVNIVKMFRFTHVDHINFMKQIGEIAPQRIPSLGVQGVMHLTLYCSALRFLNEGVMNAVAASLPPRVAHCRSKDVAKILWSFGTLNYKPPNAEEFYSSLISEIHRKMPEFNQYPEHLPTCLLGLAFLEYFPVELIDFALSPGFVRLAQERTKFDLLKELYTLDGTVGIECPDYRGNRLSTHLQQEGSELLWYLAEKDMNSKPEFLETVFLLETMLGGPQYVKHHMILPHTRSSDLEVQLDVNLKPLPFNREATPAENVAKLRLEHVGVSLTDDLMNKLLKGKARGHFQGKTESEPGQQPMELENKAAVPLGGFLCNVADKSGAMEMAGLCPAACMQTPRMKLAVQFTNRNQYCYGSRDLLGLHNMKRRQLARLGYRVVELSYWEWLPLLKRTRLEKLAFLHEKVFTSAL
T19 sequence (P48426 whole entry): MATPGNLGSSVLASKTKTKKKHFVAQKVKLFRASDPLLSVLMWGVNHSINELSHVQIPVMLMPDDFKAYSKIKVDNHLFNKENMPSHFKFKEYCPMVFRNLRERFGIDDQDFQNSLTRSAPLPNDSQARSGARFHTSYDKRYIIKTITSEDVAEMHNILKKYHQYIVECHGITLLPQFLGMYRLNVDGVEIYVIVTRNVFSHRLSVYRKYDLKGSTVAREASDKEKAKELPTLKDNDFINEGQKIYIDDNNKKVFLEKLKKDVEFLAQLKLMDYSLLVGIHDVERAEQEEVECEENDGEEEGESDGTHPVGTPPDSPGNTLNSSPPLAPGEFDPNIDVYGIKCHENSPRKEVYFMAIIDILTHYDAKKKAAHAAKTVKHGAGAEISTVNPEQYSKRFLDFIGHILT
T6 sequence (Q9NYV4 whole entry): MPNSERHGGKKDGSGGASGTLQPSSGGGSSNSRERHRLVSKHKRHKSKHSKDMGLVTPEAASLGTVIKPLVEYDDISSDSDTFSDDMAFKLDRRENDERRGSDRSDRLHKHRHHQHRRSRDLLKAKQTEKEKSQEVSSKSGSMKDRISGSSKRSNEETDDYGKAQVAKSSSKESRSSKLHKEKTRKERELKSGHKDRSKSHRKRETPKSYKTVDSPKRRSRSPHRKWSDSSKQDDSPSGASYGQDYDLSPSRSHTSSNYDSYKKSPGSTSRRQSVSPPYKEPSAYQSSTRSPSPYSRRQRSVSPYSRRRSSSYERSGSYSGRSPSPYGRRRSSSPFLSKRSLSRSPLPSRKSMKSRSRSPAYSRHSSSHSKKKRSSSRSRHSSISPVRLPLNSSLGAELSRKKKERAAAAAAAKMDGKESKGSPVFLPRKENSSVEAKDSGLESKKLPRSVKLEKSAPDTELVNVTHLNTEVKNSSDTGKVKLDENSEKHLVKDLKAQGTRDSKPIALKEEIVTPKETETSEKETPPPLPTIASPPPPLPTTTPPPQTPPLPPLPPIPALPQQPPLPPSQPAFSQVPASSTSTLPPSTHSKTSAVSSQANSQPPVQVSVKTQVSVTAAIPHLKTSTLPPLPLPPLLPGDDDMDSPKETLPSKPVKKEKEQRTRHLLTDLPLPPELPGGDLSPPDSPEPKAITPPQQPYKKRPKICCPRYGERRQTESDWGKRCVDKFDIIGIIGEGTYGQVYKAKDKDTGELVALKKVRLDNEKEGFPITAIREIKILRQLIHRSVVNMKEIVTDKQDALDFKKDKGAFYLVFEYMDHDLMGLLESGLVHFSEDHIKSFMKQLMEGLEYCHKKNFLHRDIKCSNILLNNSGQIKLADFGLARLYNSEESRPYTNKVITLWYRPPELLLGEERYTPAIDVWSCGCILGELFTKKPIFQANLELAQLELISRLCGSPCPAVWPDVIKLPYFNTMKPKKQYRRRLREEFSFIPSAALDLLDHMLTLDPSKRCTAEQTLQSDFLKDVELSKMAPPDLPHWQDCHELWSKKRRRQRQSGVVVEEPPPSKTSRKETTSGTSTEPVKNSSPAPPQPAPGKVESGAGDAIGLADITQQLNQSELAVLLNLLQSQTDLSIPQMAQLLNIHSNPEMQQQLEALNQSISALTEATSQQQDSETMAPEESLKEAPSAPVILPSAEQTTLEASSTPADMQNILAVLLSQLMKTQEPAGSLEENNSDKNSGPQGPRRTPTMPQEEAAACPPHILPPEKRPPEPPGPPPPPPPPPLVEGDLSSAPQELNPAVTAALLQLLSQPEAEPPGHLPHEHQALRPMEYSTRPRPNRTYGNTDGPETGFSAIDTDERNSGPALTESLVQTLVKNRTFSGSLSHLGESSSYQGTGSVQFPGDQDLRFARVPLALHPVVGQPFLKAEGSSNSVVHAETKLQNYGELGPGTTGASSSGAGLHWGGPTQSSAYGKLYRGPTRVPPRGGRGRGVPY
T6 sequence (O75909 whole entry partner): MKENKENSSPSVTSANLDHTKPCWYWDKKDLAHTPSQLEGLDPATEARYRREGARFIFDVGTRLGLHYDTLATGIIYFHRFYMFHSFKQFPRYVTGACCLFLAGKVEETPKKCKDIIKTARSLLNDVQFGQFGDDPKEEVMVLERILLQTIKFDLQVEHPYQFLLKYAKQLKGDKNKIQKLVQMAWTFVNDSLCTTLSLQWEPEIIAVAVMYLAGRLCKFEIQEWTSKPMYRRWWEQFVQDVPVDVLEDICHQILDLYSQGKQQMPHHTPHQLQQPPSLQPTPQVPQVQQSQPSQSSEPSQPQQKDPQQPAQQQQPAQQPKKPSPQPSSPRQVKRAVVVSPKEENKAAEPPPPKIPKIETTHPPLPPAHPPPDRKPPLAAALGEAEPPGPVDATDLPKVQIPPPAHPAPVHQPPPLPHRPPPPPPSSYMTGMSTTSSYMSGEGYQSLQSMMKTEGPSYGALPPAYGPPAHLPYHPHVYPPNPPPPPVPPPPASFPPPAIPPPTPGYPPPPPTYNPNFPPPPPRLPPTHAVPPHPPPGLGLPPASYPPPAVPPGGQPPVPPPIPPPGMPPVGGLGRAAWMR
T2 sequence (Q92688 whole entry): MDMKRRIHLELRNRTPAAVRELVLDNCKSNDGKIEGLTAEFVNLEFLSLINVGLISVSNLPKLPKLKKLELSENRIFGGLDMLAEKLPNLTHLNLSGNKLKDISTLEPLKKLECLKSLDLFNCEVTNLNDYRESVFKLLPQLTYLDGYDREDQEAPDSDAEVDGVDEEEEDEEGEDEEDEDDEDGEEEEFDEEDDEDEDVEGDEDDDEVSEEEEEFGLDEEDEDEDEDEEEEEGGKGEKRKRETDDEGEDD

CN1CCN(c2ccc(Nc3ncc4cc(C#N)c(=O)n(C5CCCC5)c4n3)cc2)CC1 [Compound 1, 8-cyclopentyl-2-((4-(4-methylpiperazin-1-yl)phenyl)amino)-7-oxo-7,8-dihydropyrido[2,3-d]pyrimidine-6-carbonitrile]
Group (CETSA-MS thermal shift) (AAK1): Stabilization | Group (CETSA-MS thermal shift) (ANP32B): Destabilization | Group (CETSA-MS thermal shift) (APLP2): Stabilization | Group (CETSA-MS thermal shift) (CAVIN3): Stabilization | Group (CETSA-MS thermal shift) (CBX5): Stabilization | Group (CETSA-MS thermal shift) (CDK12): Destabilization | Group (CETSA-MS thermal shift) (CERS2): Stabilization | Group (CETSA-MS thermal shift) (CPD): Stabilization | Group (CETSA-MS thermal shift) (DDX21): Stabilization | Group (CETSA-MS thermal shift) (DHX9): Stabilization | Group (CETSA-MS thermal shift) (FASTKD5): Stabilization | Group (CETSA-MS thermal shift) (FBRS): Stabilization | Group (CETSA-MS thermal shift) (HNRNPA0): Stabilization | Group (CETSA-MS thermal shift) (HNRNPC): Stabilization | Group (CETSA-MS thermal shift) (HSPG2): Stabilization | Group (CETSA-MS thermal shift) (ILF3): Stabilization | Group (CETSA-MS thermal shift) (MRC2): Stabilization | Group (CETSA-MS thermal shift) (MTG1): Stabilization | Group (CETSA-MS thermal shift) (PIK3C3): Stabilization | Group (CETSA-MS thermal shift) (PIP4K2A): Stabilization | Group (CETSA-MS thermal shift) (RAE1): Stabilization | Group (CETSA-MS thermal shift) (YES1): Destabilization | growth of cells (Hs578t cells): significantly inhibited | 72 h-cell viability decrease (HCC-1937): 25% | 72 h-cell viability decrease (MDA-MB-231): 75% | 72 h-cell viability decrease (MDA-MB-468): 80% | Caspase 3/7 activity (Caspase 3/7; Compound 1, Comparator 1, 2 5 μM, Comparator 4 10 μM (FIG. 22)): modest increase | Caspase 3/7 activity (Caspase 3/7; without zVAD-FMK, relative to DMSO (FIG. 26)): small increase | effect of zVAD-FMK on induced Caspase 3/7 activity (Caspase 3/7; zVAD-FMK 20 μM (FIG. 26)): inhibited by zVAD-FMK treatment | IC50 (CDK4/cyclin D1 [1]): 1 nM | CETSA (CDK4/cyclin D1 [2]): POS

— patent US20260183295A1, “METHODS AND COMPOSITIONS FOR TREATING CANCER” (Onconova Therapeutics, Inc., priority 2022, published 2026)
